From PMC4685510, “A Cell Biologist’s Field Guide to Aurora Kinase Inhibitors” (Frontiers in Oncology, 2015)

Tests used:
Assay in all cases: biochemical
Format in all cases: biochemical
[1] = target: T1, 363 human kinases (including Aurora A/B/C) (Homo sapiens, UniProt Q99759); conditions: MEKK3; for remaining activity at 0.1 µM: 100 nM; for remaining activity at 0.1 µM / remaining activity at 0.5 µM: read-out: % Enzyme Activity (relative to DMSO controls)
T1 sequence (Q99759 1-626): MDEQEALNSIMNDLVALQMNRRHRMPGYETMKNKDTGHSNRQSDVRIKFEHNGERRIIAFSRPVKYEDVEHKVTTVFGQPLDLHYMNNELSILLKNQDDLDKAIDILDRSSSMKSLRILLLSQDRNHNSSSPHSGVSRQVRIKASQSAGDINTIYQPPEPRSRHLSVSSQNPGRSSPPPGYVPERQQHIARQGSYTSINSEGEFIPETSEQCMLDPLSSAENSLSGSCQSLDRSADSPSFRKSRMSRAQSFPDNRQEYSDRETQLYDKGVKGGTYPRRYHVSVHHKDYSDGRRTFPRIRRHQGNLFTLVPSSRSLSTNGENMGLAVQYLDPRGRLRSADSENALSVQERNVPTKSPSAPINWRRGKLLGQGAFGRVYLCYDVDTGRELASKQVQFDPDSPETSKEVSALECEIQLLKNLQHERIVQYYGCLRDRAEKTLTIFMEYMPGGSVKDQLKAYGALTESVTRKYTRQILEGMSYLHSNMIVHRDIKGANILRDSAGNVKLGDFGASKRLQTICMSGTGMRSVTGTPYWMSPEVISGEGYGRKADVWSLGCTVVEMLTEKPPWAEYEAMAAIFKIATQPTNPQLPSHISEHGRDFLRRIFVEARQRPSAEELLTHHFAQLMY
Text: (§1) However, the Aurora A/B selectivity ratios derived from our in vitro and in vivo data can be compared to prioritize inhibitors.

[2] = target: 363 human kinases (including Aurora A/B/C) (Homo sapiens, UniProt Q9HC98); conditions: NEK6; for remaining activity at 0.1 µM: 100 nM; for remaining activity at 0.1 µM / remaining activity at 0.5 µM: read-out: % Enzyme Activity (relative to DMSO controls)
Chain of 363 human kinases (including Aurora A/B/C) (Homo sapiens, UniProt Q9HC98) (Q9HC98 whole entry): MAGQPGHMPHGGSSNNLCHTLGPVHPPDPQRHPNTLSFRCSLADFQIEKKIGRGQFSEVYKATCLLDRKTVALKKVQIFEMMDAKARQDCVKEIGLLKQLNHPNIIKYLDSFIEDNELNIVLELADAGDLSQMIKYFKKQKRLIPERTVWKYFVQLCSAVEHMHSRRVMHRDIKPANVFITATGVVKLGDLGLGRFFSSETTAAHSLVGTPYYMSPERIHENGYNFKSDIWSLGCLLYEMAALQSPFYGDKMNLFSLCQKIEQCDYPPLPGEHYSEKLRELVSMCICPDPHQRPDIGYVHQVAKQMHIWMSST
Text: as §1

[3] = target: T2, 363 human kinases (including Aurora A/B/C) (Homo sapiens, UniProt Q9UPZ9); conditions: LCK2/ICK; for remaining activity at 0.1 µM: 100 nM; for remaining activity at 0.1 µM / remaining activity at 0.5 µM: read-out: % Enzyme Activity (relative to DMSO controls)
T2 sequence (Q9UPZ9 1-632): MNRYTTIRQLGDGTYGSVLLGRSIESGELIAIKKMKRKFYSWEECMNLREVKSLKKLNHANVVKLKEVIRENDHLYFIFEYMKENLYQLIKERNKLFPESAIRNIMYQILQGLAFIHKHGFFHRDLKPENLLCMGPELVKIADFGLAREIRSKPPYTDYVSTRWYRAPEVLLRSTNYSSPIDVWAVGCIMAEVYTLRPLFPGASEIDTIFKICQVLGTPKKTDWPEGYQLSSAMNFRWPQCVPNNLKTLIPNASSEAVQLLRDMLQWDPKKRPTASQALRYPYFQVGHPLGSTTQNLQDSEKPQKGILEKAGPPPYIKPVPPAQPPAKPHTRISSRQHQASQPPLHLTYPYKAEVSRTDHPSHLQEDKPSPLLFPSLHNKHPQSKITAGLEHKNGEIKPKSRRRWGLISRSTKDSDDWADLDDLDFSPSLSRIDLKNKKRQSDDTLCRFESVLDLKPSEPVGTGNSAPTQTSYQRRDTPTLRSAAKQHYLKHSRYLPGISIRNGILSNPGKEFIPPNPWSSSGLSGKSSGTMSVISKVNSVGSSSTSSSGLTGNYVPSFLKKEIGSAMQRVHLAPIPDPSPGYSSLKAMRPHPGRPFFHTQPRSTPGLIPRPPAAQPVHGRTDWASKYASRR
Text: as §1

[4] = target: 363 human kinases (including Aurora A/B/C) (Homo sapiens, UniProt Q9UBS0); conditions: p70S6Kb/RPS6KB2; for remaining activity at 0.1 µM: 100 nM; for remaining activity at 0.1 µM / remaining activity at 0.5 µM: read-out: % Enzyme Activity (relative to DMSO controls)
Chain of 363 human kinases (including Aurora A/B/C) (Homo sapiens, UniProt Q9UBS0) (Q9UBS0 whole entry): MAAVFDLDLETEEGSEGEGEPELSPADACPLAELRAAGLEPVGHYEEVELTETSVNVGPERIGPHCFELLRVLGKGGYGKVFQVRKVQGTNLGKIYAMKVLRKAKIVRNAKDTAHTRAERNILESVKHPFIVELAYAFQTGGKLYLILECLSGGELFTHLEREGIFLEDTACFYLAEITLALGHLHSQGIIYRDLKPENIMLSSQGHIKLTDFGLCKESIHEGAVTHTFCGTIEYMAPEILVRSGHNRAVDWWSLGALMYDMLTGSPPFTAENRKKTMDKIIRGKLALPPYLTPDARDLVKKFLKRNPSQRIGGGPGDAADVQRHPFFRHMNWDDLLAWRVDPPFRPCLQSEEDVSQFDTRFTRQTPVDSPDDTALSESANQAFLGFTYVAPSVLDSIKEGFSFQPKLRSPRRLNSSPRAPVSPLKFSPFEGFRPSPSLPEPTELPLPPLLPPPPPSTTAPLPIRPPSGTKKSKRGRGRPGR
Text: as §1

[5] = target: T3, 363 human kinases (including Aurora A/B/C) (Homo sapiens, UniProt Q96PF2); conditions: TSSK2; for remaining activity at 0.1 µM: 100 nM; for remaining activity at 0.1 µM / remaining activity at 0.5 µM: read-out: % Enzyme Activity (relative to DMSO controls)
T3 sequence (Q96PF2 1-358): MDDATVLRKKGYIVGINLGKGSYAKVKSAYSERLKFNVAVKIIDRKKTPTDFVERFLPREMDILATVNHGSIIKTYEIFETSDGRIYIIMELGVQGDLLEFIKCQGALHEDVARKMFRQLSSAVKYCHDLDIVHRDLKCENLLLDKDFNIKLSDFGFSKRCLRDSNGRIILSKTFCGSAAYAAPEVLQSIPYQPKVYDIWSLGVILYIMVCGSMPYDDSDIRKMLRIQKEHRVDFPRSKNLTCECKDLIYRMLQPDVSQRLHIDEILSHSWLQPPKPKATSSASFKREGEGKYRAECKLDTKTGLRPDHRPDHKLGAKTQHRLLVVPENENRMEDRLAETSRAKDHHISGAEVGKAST
Text: as §1

[6] = target: T4, 363 human kinases (including Aurora A/B/C) (Homo sapiens, UniProt Q12851); conditions: GCK/MAP4K2; for remaining activity at 0.1 µM: 100 nM; for remaining activity at 0.1 µM / remaining activity at 0.5 µM: read-out: % Enzyme Activity (relative to DMSO controls)
T4 sequence (Q12851 1-820): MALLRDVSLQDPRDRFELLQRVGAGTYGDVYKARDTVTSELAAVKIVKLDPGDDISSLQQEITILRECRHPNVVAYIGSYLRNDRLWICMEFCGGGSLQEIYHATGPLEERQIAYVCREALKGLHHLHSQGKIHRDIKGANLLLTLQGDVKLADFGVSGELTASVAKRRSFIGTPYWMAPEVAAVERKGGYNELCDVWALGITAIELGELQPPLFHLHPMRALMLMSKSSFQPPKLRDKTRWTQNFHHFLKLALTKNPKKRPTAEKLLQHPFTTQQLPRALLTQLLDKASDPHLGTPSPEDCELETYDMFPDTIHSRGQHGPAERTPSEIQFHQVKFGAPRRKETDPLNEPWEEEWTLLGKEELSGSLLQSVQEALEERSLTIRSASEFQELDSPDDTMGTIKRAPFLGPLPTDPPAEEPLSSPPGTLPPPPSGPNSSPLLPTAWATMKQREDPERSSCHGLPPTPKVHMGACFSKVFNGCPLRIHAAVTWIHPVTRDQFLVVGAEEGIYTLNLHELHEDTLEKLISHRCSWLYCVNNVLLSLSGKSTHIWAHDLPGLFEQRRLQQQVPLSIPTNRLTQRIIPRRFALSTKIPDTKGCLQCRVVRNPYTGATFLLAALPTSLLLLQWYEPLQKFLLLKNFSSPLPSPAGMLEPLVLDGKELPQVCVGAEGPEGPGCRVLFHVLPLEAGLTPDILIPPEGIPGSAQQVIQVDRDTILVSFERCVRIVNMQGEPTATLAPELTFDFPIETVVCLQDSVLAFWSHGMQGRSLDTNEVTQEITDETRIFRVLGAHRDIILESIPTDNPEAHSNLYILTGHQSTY
Text: as §1

[7] = target: 363 human kinases (including Aurora A/B/C) (Homo sapiens, UniProt P05771); conditions: PKCb1; for remaining activity at 0.1 µM: 100 nM; for remaining activity at 0.1 µM / remaining activity at 0.5 µM: read-out: % Enzyme Activity (relative to DMSO controls)
Chain of 363 human kinases (including Aurora A/B/C) (Homo sapiens, UniProt P05771) (P05771 whole entry): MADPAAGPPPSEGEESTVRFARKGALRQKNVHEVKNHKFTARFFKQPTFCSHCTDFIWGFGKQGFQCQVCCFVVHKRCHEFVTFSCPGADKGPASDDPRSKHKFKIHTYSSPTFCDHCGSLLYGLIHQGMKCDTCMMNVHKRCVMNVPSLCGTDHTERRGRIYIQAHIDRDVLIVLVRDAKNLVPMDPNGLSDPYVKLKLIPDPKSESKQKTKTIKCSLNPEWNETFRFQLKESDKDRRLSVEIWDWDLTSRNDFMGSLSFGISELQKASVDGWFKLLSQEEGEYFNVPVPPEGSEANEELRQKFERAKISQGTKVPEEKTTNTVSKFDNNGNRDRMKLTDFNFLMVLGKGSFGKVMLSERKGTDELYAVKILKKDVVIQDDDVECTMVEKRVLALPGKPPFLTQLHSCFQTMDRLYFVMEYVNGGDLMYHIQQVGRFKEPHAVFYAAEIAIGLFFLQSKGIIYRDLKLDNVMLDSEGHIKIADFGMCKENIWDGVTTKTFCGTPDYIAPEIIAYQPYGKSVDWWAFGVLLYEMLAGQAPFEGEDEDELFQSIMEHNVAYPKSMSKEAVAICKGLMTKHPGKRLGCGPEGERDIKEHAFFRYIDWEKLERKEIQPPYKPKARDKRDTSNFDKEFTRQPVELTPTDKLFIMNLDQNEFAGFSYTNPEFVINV
Text: as §1

Row | SMILES | remaining activity at 0.1 µM [1] [%] | remaining activity at 0.1 µM [2] [%] | remaining activity at 0.1 µM [3] [%] | remaining activity at 0.1 µM [4] [%] | remaining activity at 0.1 µM [5] [%] | remaining activity at 0.1 µM [6] [%] | remaining activity at 0.1 µM [7] [%] | remaining activity at 0.5 µM ([1]; 500 nM) [%] | remaining activity at 0.5 µM ([2]; 500 nM) [%] | remaining activity at 0.5 µM ([3]; 500 nM) [%] | remaining activity at 0.5 µM ([4]; 500 nM) [%] | remaining activity at 0.5 µM ([5]; 500 nM) [%] | remaining activity at 0.5 µM ([6]; 500 nM) [%] | remaining activity at 0.5 µM ([7]; 500 nM) [%] | also measured
1 | CCn1cc(-c2ccnc3[nH]c(-c4cccc(CN(C)C)c4)cc23)c(-c2ccc(NC(=O)N(C)C)cc2)n1 [GSK1070916] | 97.2 | 109 | 97.6 | 110 | 99.9 | 91.1 | 98.6 |  |  |  |  |  |  |  | 
2 | O=C(O)[C@]1(Cc2cccc(Nc3nccs3)n2)CC[C@@H](Oc2cccc(Cl)c2F)CC1 [MK-5108] | 96.3 | 87 | 99 | 100 | 103 | 97.2 | 87.4 | 117 | 115 | 92.3 | 99 | 91.5 | 69.4 | 74 | 
3 | O=C(c1cccc(Cl)c1F)N1CCN(Cc2cccc(Nc3nccs3)n2)CC1 [MK-8745] |  |  |  |  |  |  |  | 114 | 102 | 93 | 99.3 | 94.7 | 93.7 | 98.2 | % Enzyme Activity (relative to DMSO controls) ([1]; 500 nM): 111.88%; % Enzyme Activity (relative to DMSO controls) ([2]; 500 nM): 99.72%; % Enzyme Activity (relative to DMSO controls) ([3]; 500 nM): 91.96%; % Enzyme Activity (relative to DMSO controls) ([4]; 500 nM): 97.78%; % Enzyme Activity (relative to DMSO controls) ([5]; 500 nM): 93.76%; % Enzyme Activity (relative to DMSO controls) ([6]; 500 nM): 91.89%; % Enzyme Activity (relative to DMSO controls) ([7]; 500 nM): 96.23%
